Values after ≈ are worked out from the molar mass of the structure shown.

Data set [1] deals with T1, Carnitine O-palmitoyltransferase 1, liver isoform (Rattus norvegicus, UniProt P32198).
T1 sequence (P32198 whole entry): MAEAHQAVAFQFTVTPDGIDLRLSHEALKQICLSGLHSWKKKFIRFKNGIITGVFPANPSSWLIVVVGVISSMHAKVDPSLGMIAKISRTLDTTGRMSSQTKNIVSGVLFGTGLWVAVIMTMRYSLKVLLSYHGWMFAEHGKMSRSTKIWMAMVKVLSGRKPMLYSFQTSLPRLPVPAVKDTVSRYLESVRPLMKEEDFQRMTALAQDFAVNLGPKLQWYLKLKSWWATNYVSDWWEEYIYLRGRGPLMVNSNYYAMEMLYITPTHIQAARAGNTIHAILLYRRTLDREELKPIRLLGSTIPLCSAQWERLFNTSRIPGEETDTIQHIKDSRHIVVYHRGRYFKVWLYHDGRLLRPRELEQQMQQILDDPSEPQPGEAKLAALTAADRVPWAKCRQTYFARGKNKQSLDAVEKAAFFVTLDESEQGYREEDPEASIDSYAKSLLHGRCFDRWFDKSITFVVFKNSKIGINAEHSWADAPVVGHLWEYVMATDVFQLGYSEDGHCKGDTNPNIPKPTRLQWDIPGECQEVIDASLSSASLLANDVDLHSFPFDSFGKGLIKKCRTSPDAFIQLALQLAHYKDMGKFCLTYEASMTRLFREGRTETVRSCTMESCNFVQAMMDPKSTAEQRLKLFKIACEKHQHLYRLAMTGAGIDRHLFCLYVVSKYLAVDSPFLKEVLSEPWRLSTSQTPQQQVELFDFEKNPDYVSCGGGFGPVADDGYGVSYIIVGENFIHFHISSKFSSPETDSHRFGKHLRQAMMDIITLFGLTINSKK
Put plainly: (§1) SUPPLEMENTARY: Inhibition of Carnitine palmitoyltransferase 1, liver isoform.

The target in data set [2] is T2, Carnitine O-palmitoyltransferase 1, liver isoform (Homo sapiens, UniProt P50416).
T2 sequence (P50416 whole entry): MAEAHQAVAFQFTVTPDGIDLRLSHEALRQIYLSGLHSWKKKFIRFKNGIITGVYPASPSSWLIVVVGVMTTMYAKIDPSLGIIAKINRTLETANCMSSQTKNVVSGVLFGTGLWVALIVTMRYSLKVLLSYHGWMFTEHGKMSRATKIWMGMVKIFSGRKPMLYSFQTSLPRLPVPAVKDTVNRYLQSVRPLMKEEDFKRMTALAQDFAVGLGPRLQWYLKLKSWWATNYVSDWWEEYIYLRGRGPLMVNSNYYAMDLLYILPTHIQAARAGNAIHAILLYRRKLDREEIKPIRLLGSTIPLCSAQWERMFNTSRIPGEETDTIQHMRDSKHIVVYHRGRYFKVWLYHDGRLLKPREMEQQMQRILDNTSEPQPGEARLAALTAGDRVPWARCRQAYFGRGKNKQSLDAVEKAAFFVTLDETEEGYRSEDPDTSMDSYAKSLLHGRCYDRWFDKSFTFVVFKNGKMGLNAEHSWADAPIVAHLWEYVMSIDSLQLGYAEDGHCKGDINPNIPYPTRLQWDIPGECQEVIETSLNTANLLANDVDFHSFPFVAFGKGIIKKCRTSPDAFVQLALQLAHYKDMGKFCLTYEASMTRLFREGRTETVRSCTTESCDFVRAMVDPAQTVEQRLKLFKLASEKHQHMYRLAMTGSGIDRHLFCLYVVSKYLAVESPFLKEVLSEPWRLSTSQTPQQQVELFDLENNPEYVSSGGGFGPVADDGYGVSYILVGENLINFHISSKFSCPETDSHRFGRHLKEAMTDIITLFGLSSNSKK
Described as §1.

Data set [3] can be described thus: SUPPLEMENTARY: Lipophilicity (log D) Determination by high-throughput shake-flask. The class given is physicochemical. The following applies: octanol/water.
Data set [4] addresses T3, Carnitine O-palmitoyltransferase 2, mitochondrial (Rattus norvegicus, UniProt P18886).
T3 sequence (P18886 whole entry): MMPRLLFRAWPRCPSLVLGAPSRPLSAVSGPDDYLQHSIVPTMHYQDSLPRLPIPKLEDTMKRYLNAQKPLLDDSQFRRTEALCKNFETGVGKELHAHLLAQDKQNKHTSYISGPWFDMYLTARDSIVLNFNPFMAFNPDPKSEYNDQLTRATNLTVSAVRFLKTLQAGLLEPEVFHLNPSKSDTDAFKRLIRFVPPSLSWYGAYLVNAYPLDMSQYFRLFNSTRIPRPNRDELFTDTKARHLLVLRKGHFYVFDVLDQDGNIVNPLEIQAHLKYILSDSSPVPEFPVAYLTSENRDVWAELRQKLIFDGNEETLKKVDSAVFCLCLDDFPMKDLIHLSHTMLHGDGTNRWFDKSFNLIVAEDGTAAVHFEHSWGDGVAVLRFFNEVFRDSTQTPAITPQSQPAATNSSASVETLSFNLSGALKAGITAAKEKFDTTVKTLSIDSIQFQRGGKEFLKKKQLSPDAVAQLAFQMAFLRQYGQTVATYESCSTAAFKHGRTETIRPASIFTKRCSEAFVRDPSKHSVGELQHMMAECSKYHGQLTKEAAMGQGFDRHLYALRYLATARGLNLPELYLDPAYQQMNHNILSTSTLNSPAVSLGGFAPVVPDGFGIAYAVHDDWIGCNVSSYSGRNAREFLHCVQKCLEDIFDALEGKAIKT
Nature of the data set: (§2) SUPPLEMENTARY: Inhibition of Carnitine palmitoyltransferase 2.

For data set [5], the target named is T4, Carnitine O-palmitoyltransferase 2, mitochondrial (Homo sapiens, UniProt P23786).
T4 sequence (P23786 whole entry): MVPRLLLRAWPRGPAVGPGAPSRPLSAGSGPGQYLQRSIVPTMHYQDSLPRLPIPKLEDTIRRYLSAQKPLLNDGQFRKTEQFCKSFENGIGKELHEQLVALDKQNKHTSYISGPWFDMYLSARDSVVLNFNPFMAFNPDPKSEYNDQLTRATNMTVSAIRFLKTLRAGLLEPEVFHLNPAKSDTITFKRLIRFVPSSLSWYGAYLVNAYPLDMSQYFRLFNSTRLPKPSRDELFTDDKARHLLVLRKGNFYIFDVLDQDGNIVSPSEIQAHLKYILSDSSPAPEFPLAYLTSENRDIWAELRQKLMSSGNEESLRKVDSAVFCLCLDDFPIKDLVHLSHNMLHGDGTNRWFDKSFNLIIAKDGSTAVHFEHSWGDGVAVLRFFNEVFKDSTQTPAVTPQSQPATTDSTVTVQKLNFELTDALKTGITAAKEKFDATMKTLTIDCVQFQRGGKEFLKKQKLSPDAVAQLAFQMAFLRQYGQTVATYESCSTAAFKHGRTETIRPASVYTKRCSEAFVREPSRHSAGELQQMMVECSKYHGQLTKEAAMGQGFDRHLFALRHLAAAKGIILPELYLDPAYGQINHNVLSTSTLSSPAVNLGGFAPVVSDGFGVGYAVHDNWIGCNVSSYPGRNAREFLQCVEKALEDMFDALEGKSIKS
The data set is described as §2.

The target in data set [6] is T5, Carnitine O-palmitoyltransferase 1, muscle isoform (Homo sapiens, UniProt Q92523).
T5 sequence (Q92523 whole entry): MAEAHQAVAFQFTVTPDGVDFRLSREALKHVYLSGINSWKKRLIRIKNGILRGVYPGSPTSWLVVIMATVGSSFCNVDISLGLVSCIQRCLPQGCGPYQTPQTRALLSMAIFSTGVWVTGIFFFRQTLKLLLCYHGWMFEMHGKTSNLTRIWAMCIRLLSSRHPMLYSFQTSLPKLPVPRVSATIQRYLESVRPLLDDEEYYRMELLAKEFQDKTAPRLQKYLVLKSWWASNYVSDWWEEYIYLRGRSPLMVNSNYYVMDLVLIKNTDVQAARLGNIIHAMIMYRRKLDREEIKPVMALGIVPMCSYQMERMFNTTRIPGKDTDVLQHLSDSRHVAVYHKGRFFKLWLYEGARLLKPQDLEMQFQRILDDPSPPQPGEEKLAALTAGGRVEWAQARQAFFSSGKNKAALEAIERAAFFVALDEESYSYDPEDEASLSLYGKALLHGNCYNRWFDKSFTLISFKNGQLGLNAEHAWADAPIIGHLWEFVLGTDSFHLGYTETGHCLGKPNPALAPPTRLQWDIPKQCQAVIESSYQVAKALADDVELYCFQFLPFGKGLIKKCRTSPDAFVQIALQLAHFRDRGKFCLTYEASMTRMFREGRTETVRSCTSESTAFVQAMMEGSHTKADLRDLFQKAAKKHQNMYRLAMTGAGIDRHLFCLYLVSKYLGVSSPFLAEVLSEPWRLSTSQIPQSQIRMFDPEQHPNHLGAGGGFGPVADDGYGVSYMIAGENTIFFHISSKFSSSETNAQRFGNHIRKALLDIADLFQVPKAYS
Nature of the data set: SUPPLEMENTARY: Inhibition of Carnitine palmitoyltransferase 1, muscle isoform. Set-up: species or system Muscle tissue.

The nature of data set [7]: SUPPLEMENTARY: PAMPA permeability assay. The class given is physicochemical. The following applies: read-out: Permeability. In general terms: The PAMPA barrier holds no transporters, so it reflects passive diffusion.
Data set [8] is described as follows: SUPPLEMENTARY: Lyophilisation Solubility Assay (LYSA). The class given is physicochemical. The following applies: read-out: Kinetic_solubility.

As a reminder, the IC50 is the concentration that inhibits the measured activity by half. A high value points to weaker potency in that assay. For orientation: logD means the decadic logarithm of the distribution of all forms, ionised or not, between an organic phase and buffer at a given pH. As to `COc1ccc(Cl)cc1S(=O)(=O)N1CCc2ccc(C(=O)Nc3ccc(C(=O)O)c(Cl)c3)cc21`, the half-maximal inhibitory concentration (IC50) is 0.0926 µM in data set [1]; 0.132 µM in data set [2]; 3.41 µM in data set [4]; 0.966 µM in data set [5]; 0.755 µM in data set [6]. Moreover, the logD in data set [3] came out at 0.26. Also, the Papp in data set [7] came out at 12 nm/s. Further, the solubility kinetic in data set [8] was over 0.579 mg/mL.
With `O=C(Nc1ccc(C(=O)O)c(Cl)c1)c1ccc2c(c1)N(S(=O)(=O)c1cc(Cl)cc(Cl)c1)CC2`, the IC50 in data set [1] was determined as 0.0651 µM; in data set [2] it was 0.0902 µM; in data set [4], 3.35 µM; in data set [5] it was 2.46 µM; in data set [6] it was 3.83 µM. In data set [3], this compound yielded a pH-dependent lipophilicity (logD) of 2.67. Besides, the Papp in data set [7] was 18.9 nm/s. Besides, the solubility kinetic in data set [8] came to 0.016 mg/mL (≈ 30.4 µM).
For the compound `COc1ccc(C)cc1S(=O)(=O)N1CCCc2ccc(C(=O)Nc3ccc(C(=O)O)c(F)c3)cc21`, the 50% inhibitory concentration (IC50) in data set [1] was 0.0909 µM; in data set [2], 0.152 µM; in data set [4] it was 8.13 µM; in data set [5], 4.43 µM; in data set [6] it was 5.18 µM. In data set [3], this compound showed a logD of 0.88. The Papp in data set [7] stood at 16.2 nm/s. Besides, the solubility kinetic in data set [8] was found to be 0.06 mg/mL (≈ 120 µM).
Regarding `COc1ccc(Cl)cc1S(=O)(=O)N1CCCc2ccc(C(=O)Nc3ccc(C(=O)O)c(F)c3)cc21`, the IC50 in data set [1] worked out at 0.0477 µM; in data set [2] it was 0.0381 µM; in data set [4], 10.2 µM; in data set [5], 2.8 µM; in data set [6], 3.02 µM. Also, in data set [3], the logD was 0.55. For the same compound, the Papp in data set [7] turned out to be 17.7 nm/s. Besides, the solubility kinetic in data set [8] was 0.182 mg/mL (≈ 351 µM).
Turning to `COc1ccc(Cl)cc1S(=O)(=O)Nc1cc(C(=O)Nc2ccc(C(=O)O)cc2)cn(C)c1=O`, the IC50 in data set [1] is 0.0804 µM; in data set [2], 0.127 µM; in data set [4] it was 42.4 µM; in data set [5], 3.23 µM; in data set [6], over 100 µM. In data set [3], the logD is -0.34. Besides, the Papp in data set [7] stood at 2.7 nm/s. In addition, the solubility kinetic in data set [8] was found to be 0.013 mg/mL (≈ 26.4 µM).
As to `O=C(COc1ccccc1)N1CCNC[C@@H]1c1nc(-c2ccc3[nH]cnc3c2)no1`, the IC50 was 9.64 µM in data set [1]; 0.132 µM in data set [2]; over 100 µM in data set [4]; over 100 µM in data set [5]; over 100 µM in data set [6]. In data set [3], this compound gave a logD of 1.63. In addition, the Papp in data set [7] was 15.3 nm/s. Also, the solubility kinetic in data set [8] turned out to be 0.367 mg/mL (≈ 907 µM).
Regarding `CN1CCN(C(=O)COc2ccccc2)[C@@H](c2nc(-c3ccc4c(c3)CC(=O)N4)no2)C1`, the IC50 in data set [1] was 0.305 µM; in data set [2], 0.137 µM; in data set [4], 35 µM; in data set [5], 16.5 µM; in data set [6] it was over 100 µM. In addition, in data set [3], the logD is 1.91. Further, the Papp in data set [7] is 33.8 nm/s. Also, the solubility kinetic in data set [8] was found to be 0.073 mg/mL (≈ 168 µM).
For `O=C1Cc2cc(-c3noc([C@H]4CNCCN4C(=O)COc4ccccc4)n3)ccc2N1`, the IC50 in data set [1] was 0.306 µM; in data set [2] it was 0.105 µM; in data set [4] it was 93.5 µM; in data set [5], 58.9 µM; in data set [6], over 100 µM. This compound also registered a logD in data set [3] of 1.09. Moreover, in data set [7], the Papp amounted to 27.7 nm/s. The solubility kinetic in data set [8] was 0.312 mg/mL (≈ 745 µM).
Consider `O=C(COc1ccccc1)N1CCCC[C@@H]1c1nc(-c2ccc(=O)[nH]c2)no1`, for which the half-maximal inhibitory concentration (IC50) in data set [1] is 1.19 µM; in data set [2], 0.325 µM; in data set [4] it was over 100 µM; in data set [5], 97.9 µM; in data set [6], over 100 µM. Also, in data set [3], the logD stood at 1.83. Besides, the Papp in data set [7] worked out at 47.5 nm/s. Further, in data set [8], the solubility kinetic was determined as 0.161 mg/mL (≈ 423 µM).
`CN1CCN(C(=O)COc2ccccc2)[C@@H](c2nc(-c3ccc4[nH]nnc4c3)no2)C1`: the concentration for half-maximal inhibition (IC50) in data set [1] is 0.265 µM; in data set [2] it was 0.0246 µM; in data set [4] it was over 100 µM; in data set [5], over 100 µM; in data set [6], over 100 µM. Also, the log distribution coefficient (logD) in data set [3] is 1.86. Besides, the Papp in data set [7] worked out at 37.5 nm/s. Moreover, in data set [8], the solubility kinetic stood at 0.167 mg/mL (≈ 398 µM).
